35 compounds from US10414768B2, “Compounds for treating cystic fibrosis” (CENTRE NATIONAL DE LA RECHERCHE SCIENTIFIQUE (CNRS), priority 2014, dated 2019) can be followed below.

A word on the Emax: it is the size of the effect at its maximum, as opposed to the concentration needed.

T1 sequence (P13569 with tags, fused parts or gaps DEL508-508): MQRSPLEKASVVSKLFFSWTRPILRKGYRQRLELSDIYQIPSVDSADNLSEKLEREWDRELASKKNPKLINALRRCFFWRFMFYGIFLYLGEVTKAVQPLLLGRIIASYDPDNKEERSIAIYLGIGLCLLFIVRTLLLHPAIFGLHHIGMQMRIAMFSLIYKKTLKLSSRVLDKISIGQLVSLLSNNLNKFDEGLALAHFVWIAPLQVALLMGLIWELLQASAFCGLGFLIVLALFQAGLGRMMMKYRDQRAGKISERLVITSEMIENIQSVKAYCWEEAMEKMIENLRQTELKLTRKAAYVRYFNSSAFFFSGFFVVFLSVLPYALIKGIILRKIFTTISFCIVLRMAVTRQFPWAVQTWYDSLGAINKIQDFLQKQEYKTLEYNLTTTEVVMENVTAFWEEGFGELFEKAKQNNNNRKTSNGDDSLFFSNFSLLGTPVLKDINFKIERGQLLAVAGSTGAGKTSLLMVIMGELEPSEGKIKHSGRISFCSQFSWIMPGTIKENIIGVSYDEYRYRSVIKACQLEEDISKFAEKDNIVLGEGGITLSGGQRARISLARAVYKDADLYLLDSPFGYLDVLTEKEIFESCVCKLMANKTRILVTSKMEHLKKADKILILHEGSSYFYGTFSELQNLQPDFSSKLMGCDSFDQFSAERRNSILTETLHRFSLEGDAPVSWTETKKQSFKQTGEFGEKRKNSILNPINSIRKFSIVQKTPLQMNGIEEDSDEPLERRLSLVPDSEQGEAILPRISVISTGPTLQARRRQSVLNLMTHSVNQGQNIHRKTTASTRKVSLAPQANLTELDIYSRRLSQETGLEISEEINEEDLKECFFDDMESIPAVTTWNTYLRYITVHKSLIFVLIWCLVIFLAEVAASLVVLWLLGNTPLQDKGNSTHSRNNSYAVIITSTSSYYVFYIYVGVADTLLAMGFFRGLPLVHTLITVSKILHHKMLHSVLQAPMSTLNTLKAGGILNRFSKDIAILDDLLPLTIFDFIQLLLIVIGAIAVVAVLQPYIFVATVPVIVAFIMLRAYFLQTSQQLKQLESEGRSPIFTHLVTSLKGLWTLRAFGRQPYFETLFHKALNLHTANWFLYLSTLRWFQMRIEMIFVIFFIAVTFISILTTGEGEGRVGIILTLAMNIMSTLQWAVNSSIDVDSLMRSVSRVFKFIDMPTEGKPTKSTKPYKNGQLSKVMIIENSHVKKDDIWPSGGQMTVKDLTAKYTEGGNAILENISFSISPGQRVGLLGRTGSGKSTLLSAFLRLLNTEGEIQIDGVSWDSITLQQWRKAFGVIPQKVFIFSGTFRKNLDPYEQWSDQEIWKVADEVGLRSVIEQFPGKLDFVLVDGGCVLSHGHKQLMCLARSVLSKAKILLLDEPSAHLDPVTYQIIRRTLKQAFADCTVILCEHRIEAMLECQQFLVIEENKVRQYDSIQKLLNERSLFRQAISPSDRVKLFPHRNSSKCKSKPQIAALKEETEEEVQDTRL

One assay has as its target T1, F508del-CFTR (Homo sapiens, UniProt P13569, DEL508-508).
T1 construct: expressed in transfected cells; host or cells: HeLa cells (spTCF-ΔF), selected with Zeocin
The experiment in a line: Western blot of F508del-CFTR maturation profile (C-band appearance). In kind it is cell-based. The conditions noted are these: HeLa cells expressing F508del-CFTR, compared with untreated cells, FIG. 1. As to the method:
(§1) Pharmacology, chemicals and reagents. The CFTR activator forskolin and potentiator genistein (Illek et al., 1995) were purchased from LC Laboratories (PKC Pharmaceuticals, Woburn, Mass.). We purchased DIDS (5-Isothiocyanato-2-[2-(4-isothiocyanato-2-sulfophenyl)ethenyl]benzene-1-sulfonic acid) and VX809 (3-(6-(1-(2,2-difluorobenzo[d][1,3]dioxol-5-yl)cyclopropanecarboxamido)-3-methylpyridin-2-yl)benzoic acid) from Selleckchem (Houston, USA). Stock solutions of F (10 mM), G (30 mM), CFTRinh-172 (10 mM), VX809 (10 mM), were prepared in DMSO. We prepared stock solution of iminosugars, miglustat and IsoLAB ([1,4-dideoxy-2-hydroxymethyl-1,4-imino-L-threitol]) dissolved in water (100 mM) before further dilution. Methods Cell culture. HeLa cells expressing wild-type CFTR (spTCF-wt) or F508del-CFTR (spTCF-ΔF) were cultured in Dulbecco's modified Eagle's medium+GlutaMAX™-I (Invitrogen) supplemented with 8% (v/v) fetal bovine serum (FBS), 1% (v/v) penicillin/streptomycin and were selected using Zeocin (50 μg/mL). Both cell lines were grown in standard culture conditions (37° C., 5% C02). Cells were plated in 35 mm plastic dishes for whole-cell patch-clamp recordings and western blot analysis and in 96-well plates for cytotoxicity assay. For all cell culture, culture media were renewed every 2 days. Western Blot analysis. Cell lysates (10 mM Tris, 1% Nonidet P-40, 0.5% sodium deoxycholate, pH 7.5) were separated 72 h after seeding for HeLa cells by 5% SDS-PAGE (50 μg of protein/well). After saturation, nitrocellulose membrane was incubated overnight at 4° C. in phosphate-buffered saline, 0.1% Tween 20 with 1 μg/ml mouse anti-CFTR monoclonal antibody (clone MAB3480; Chemicon International, Millipore Bioscience Research Reagents, Temecula, Calif.). After washing, goat peroxidase-conjugated anti-mouse IgG (1:10 000; Sigma-Aldrich) was used as secondary antibody. CFTR was visualized by chemiluminescence with ECL Western blotting detection reagent (GE Healthcare, Buckinghamshire, UK). Iodide efflux. CFTR chloride channel activity was assayed by measuring the rate of iodide (^125I) efflux from living cells. All experiments were performed with a MultiPROBE® IIex robotic liquid handling system (Perkin Elmer Life Sciences, Courtaboeuf, France). At the beginning of each experiment, cells were washed twice with efflux buffer containing (in mM) 136.9 NaCl, 5.4 KCl, 0.3 KH2PO4, 0.3 NaH2PO4, 1.3 CaCl2, 0.5 MgCl2, 0.4 MgSO4, 5.6 glucose and 10 HEPES, pH 7.4. Cells were incubated in efflux buffer containing Na^125I (1 μCi Na^125I/ml, NEN, Boston, Mass.) during 1 h at 37° C., then washed with efflux medium to remove extracellular ^125I. The loss of intracellular ^125I was determined by removing the medium with efflux buffer every 1 min for up to 10 min. The first three aliquots were used to establish a stable baseline in efflux buffer alone. A medium containing the activators of CFTR (Fsk 10 μM+Gst 30 μM) and the appropriate drug was used for the remaining aliquots. Residual radioactivity was extracted with 0.1 N NaOH/0.1% SDS, and determined using a Packard Cobra™ II gamma counter (Perkin Elmer life Sciences, Courtaboeuf, France). The fraction of initial intracellular ^125I lost during each time point was collected and time-dependent rates of ^125I efflux calculated from: ln (^125It1/^125It2)/(t1−t2) where ^125It is the intracellular ^125I at time t, and t1 and t2 successive time points. Curves were constructed by plotting rate of 125I versus time. All comparisons were based on maximal values for the time-dependent rates (k=peak rates, min−1) excluding the points used to establish the baseline (kpeak−kbasal, min^−1), and histograms were presented as percentage of activation. Time dependence. Time dependence of the compounds was assayed by measuring the time necessary for an optimal correction of the protein F508del-CFTR. […]
(In general: Immunoblotting shows a protein as a band on a membrane.)
As to `Nc1ncnc2c1ncn2CCCc1ccccc1` [Compound 1, 9-(3-phenylpropyl)-9H-purin-6-amine], the “C-band appearance (mature, fully glycosylated F508del-CFTR) on immunoblot” value is reported as “mature, fully glycosylated C-band F508del-CFTR”.

For the compound `Nc1nc(NCCCc2ccccc2)nc2[nH]cnc12` [Compound 7, N^2-(3-phenylpropyl)-9H-purine-2,6-diamine], the “C-band appearance (mature, fully glycosylated F508del-CFTR) on immunoblot” value is “mature, fully glycosylated C-band F508del-CFTR”. Still for that read-out and setting: the entry for `COc1ccc(CNc2nc(NCCCc3ccccc3)nc3[nH]cnc23)cc1` [Compound 10, N^6-(4-methoxybenzyl)-N^2-(3-phenylpropyl)-9H-purine-2,6-diamine] is “mature, fully glycosylated C-band F508del-CFTR”; for `C[C@H](Nc1nc(Cl)nc2c1ncn2-c1ccc(CO)cc1)C(=O)O` [Compound 14, (S)-2-((2-chloro-9-(4-(hydroxymethyl)phenyl)-9H-purin-6-yl)amino)propanoic acid] it is “mature, fully glycosylated C-band F508del-CFTR”.

In another assay the target is T1, F508del-CFTR. Briefly: Iodide (125I) efflux from HeLa cells expressing F508del-CFTR. In kind it is cell-based. The conditions noted are these: HeLa, activators Fsk 10 μM + Gst 30 μM, relative to VX809 normalized at 100%, untreated cells 3.6%. The method, then: as §1
On to `Nc1ncnc2c1ncn2CCCc1ccccc1` [Compound 1, 9-(3-phenylpropyl)-9H-purin-6-amine], for which the Emax is 35 to 60%.

Turning to `Nc1nc(NCCCc2ccccc2)nc2[nH]cnc12` [Compound 7, N^2-(3-phenylpropyl)-9H-purine-2,6-diamine], the Emax was ≥ 60%.

Turning to `COc1ccc(CNc2nc(NCCCc3ccccc3)nc3[nH]cnc23)cc1` [Compound 10, N^6-(4-methoxybenzyl)-N^2-(3-phenylpropyl)-9H-purine-2,6-diamine], the Emax lay within 35 to 60%. As for `C[C@H](Nc1nc(Cl)nc2c1ncn2-c1ccc(CO)cc1)C(=O)O` [Compound 14, (S)-2-((2-chloro-9-(4-(hydroxymethyl)phenyl)-9H-purin-6-yl)amino)propanoic acid], the Emax was ≥ 60%. For the compound `Nc1nc(Cl)c(NC=O)c(Cl)n1` [Compound 101, N-(2-amino-4,6-dichloropyrimidin-5-yl)formamide], the Emax is 35 to 60%. Take `Nc1ncnc(N)c1N` [Compound 102, pyrimidine-4,5,6-triamine]: the Emax is ≥ 60%. With `O=[N+]([O-])c1c(O)nc(O)nc1Cl` [Compound 103, 6-chloro-5-nitropyrimidine-2,4-diol], the Emax was 10 to 35%. `Nc1nc(NCCc2ccc(F)cc2)nc2[nH]cnc12` [Compound 104, N2-(4-fluorophenethyl)-9H-purine-2,6-diamine]: the maximal effect (Emax) lay in the range of 35 to 60%. Regarding `NC(=O)c1ccc(Nc2ccncc2[N+](=O)[O-])cc1` [Compound 105, 4-((3-nitropyridin-4-yl)amino)benzamide], the Emax is ≥ 60%. Turning to `NC(=O)c1ccc(Nc2ncnc(Cl)c2[N+](=O)[O-])cc1` [Compound 106, 4-((6-chloro-5-nitropyrimidin-4-yl)amino)benzamide], the Emax was in the range of 10 to 35%. Regarding `NC(=O)c1ccc(Nc2ncncc2N)cc1` [Compound 107, 4-((5-aminopyrimidin-4-yl)amino)benzamide], the Emax was ≥ 60%. For the compound `NC(=O)c1ccc(Sc2ncnc(Cl)c2N)cc1` [Compound 108, 4-((5-amino-6-chloropyrimidin-4-yl)thio)benzamide], the Emax lay within 10 to 35%. Take `Cc1ccc(Nc2ncnc(Cl)c2N)cc1` [Compound 109, 6-chloro-N4-(p-tolyl)pyrimidine-4,5-diamine]: the maximal response (Emax) is 35 to 60%. Turning to `Nc1c(Cl)ncnc1Nc1ccc(F)cc1` [Compound 110, 6-chloro-N4-(4-fluorophenyl)pyrimidine-4,5-diamine], the Emax was 10 to 35%. On the same count and under the same terms, in the case of `Nc1cncnc1Cl` [Compound 111, 4-chloropyrimidin-5-amine] it was 35 to 60%; in that of `NC(=O)c1ccc(-n2ccc3c(Cl)ncnc32)cc1` [Compound 112, 4-(4-chloro-7H-pyrrolo[2,3-d]pyrimidin-7-yl)benzamide], 10 to 35%; in that of `NC(=O)c1ccc(-c2nc(N)nc3[nH]cnc23)cc1` [Compound 113, 4-(2-amino-9H-purin-6-yl)benzamide], ≥ 60%. Consider `NC(=O)c1ccc(Nc2c[n+]([O-])ccc2[N+](=O)[O-])cc1` [Compound 114, 3-((4-carbamoylphenyl)amino)-4-nitropyridine 1-oxide], for which the Emax is ≥ 60%. On to `NC(=O)c1ccc(Nc2ncccc2N)cc1` [Compound 115, 2-((4-carbamoylphenyl)amino)-pyridin-3-aminium chloride], for which the Emax was ≥ 60%. `NC(=O)c1ccc(-n2cnc3cncnc32)cc1` [Compound 116, 4-(9H-purin-9-yl)benzamide]: the Emax was in the range of 35 to 60%.

Take `Nc1nc(Nc2ccc(CO)cc2)c2ncn(-c3ccc(CO)cc3)c2n1` [Compound 117, (4-(2-amino-6-((4-(hydroxymethyl)phenyl)-amino)-9H-purin-9-yl)phenyl)methanol]: the Emax lay in the range of 35 to 60%. With `C[C@H](Nc1nc(Cl)nc2c1ncn2-c1ccccc1)C(=O)O` [Compound 118, (S)-2-((2-chloro-9-phenyl-9H-purin-6-yl)amino)propanoic acid], the Emax is ≥ 60%. Still for that read-out and setting: in the case of `NC(=O)c1ccc(Cn2cnc3c(N[C@@H](CO)C(=O)O)nc(Cl)nc32)cc1` [Compound 119, (S)-2-((9-(4-carbamoylbenzyl)-2-chloro-9H-purin-6-yl)amino)-3-hydroxypropanoic acid] it was 35 to 60%; in that of `CC(=O)Nc1ccc(Nc2ncnc(Cl)c2[N+](=O)[O-])cc1` [Compound 120, N-(4-((6-chloro-5-nitropyrimidin-4-yl)amino)phenyl)acetamide], 35 to 60%. The same measure, in the same setting: the figure for `C[C@H](Nc1nc(Cl)nc2c1ncn2Cc1ccc(C(N)=O)cc1)C(=O)OC(C)(C)C` [Compound 121, (S)-tert-butyl 2-((9-(4-carbamoylbenzyl)-2-chloro-9H-purin-6-yl)amino)propanoate] is 10 to 35%; for `NC(=O)c1ccc(-n2c(=O)[nH]c3c(Cl)ncnc32)cc1` [Compound 122, 4-(6-chloro-8-oxo-7H-purin-9(8H)-yl)benzamide] it is 10 to 35%; for `CN(c1ccc(C(=O)O)cc1)c1ncnc(Cl)c1[N+](=O)[O-]` [Compound 123, 4-((6-chloro-5-nitropyrimidin-4-yl)(methyl)amino)benzoic acid] it is 10 to 35%.

Consider `CN(c1ccc(C(N)=O)cc1)c1ncnc(Cl)c1[N+](=O)[O-]` [Compound 125, 4-((6-chloro-5-nitropyrimidin-4-yl)(methyl)amino)benzamide], for which the Emax was ≥ 60%. Same read-out and setting: the figure for `CN(c1ccc(C(N)=O)cc1)c1ncnc(Cl)c1N` [Compound 126, 4-((5-amino-6-chloropyrimidin-4-yl)(methyl)amino)benzamide] is ≥ 60%; for `COc1ccc(CNc2nc(NCCCc3cccc(F)c3)nc3[nH]cnc23)cc1` [Compound 127, N2-(3-(3-fluorophenyl)propyl)-N6-(4-methoxybenzyl)-9H-purine-2,6-diamine] it is 35 to 60%.

`Nc1nc(NCCCc2cccc(F)c2)nc2[nH]cnc12` [Compound 128, N2-(3-(3-fluorophenyl)propyl)-9H-purine-2,6-diamine]: the Emax lay in the range of 35 to 60%. As for `NC(=O)c1ccc(-c2nc(N)c3nc[nH]c3n2)cc1` [Compound 130, 4-(6-amino-9H-purin-2-yl)benzamide], the Emax is ≥ 60%.

As to `NC(=O)c1ccc(-c2ccnc3ccccc23)cc1` [Compound II-1, 4-(quinolin-4-yl)benzamide], the Emax was ≥ 60%.

The assay is the same for the next values; noted with them: activators Fsk 10 μM + Gst 30 μM, relative to VX809 normalized at 100%, untreated cells 3.6%.
On to `CSc1ncnc(Nc2ccc(C(N)=O)cc2)c1N` [Compound 124, 4-((5-amino-6-(methylthio)pyrimidin-4-yl)amino)benzamide], for which the Iodide efflux result is given as “+ (10%≤+<35%)”. `CSc1ncnc(Nc2ccc(C(N)=O)cc2)c1N` [Compound 129, 4-((5-amino-6-(methylthio)pyrimidin-4-yl)amino)benzamide]: the Iodide efflux entry is listed as “+++ (+++≥60%)”.
